Values after ≈ are worked out from the molar mass of the structure shown. Like-named read-outs stand apart in the source and are kept apart here. Where a SMILES comes first, the peptide text is derived from it. Bridges are numbered along the chain shown (N, C = ends). [ ]: non-standard residue; d: D form. NMeR = CN[C@@H](CCCNC(=N)N)C(=O)O
What was measured:
human red blood cells = details: red cells of human
Escherichia coli = assay type: cell-based
Staphylococcus aureus = assay: microbe, parasite or virus in culture; assay type: cell-based
Klebsiella pneumoniae = assay type: cell-based
Acinetobacter baumannii = assay type: cell-based
Pseudomonas aeruginosa = assay type: cell-based

MIC90 (Escherichia coli) [µM]	MIC (μM) sa (Staphylococcus aureus) [µM]	MIC (μM) kp (Klebsiella pneumoniae) [µM]	MIC (μM) ab (Acinetobacter baumannii) [µM]	MIC (μM) pa (Pseudomonas aeruginosa) [µM]	MIC (μM) ec (Escherichia coli) [µM]	MIC (μM) kp (Klebsiella pneumoniae; Klebsiella pneumoniae, non-resistant, microbroth dilution, n = 5) [µM]	MIC (μM) ab (Acinetobacter baumannii; Acinetobacter baumannii, non-resistant, microbroth dilution, n = 5) [µM]	MIC (μM) pa (Pseudomonas aeruginosa; Pseudomonas aeruginosa, non-resistant, microbroth dilution, n = 5) [µM]	Compound	MHC10 (μM), minimum hemolytic concentration (human red blood cells) [µM]	MIC (Staphylococcus aureus; Staphylococcus aureus, read-out: MIC (μM) sa) [µM]
0.3 (≈ 0.633 µg/mL)									CC(C)C[C@H](NC(=O)[C@H](CCCNC(=N)N)NC(=O)CNC(=O)CNC(=O)[C@@H](N)CCCNC(=N)N)C(=O)N[C@H](C(=O)N[C@@H](Cc1ccc(O)cc1)C(=O)N[C@H](C(=O)N[C@@H](CCCNC(=N)N)C(=O)N[C@@H](C(=O)N(C)[C@@H](CCCNC(=N)N)C(=O)N[C@@H](Cc1ccccc1)C(=O)N[C@H](C(=O)N[C@H](C(=O)N[C@H](C(=O)N[C@H](C(=O)NCC(=O)N[C@@H](CCCNC(=N)N)C(N)=O)C(C)C)[C@@H](C)O)C(C)C)[C@@H](C)O)C(C)C)[C@@H](C)O)[C@@H](C)O [2e] (H-RGGRLTYTR[dV][NMeR]FTVTVGR-NH2)	50	
1.1 (≈ 2.76 µg/mL)									CC(C)[C@H](NC(=O)[C@H](CCCNC(=N)N)NC(=O)[C@H](Cc1ccccc1)NC(=O)[C@@H](NC(=O)[C@H](Cc1c[nH]c2ccccc12)NC(=O)[C@H](CCCNC(=N)N)NC(=O)[C@@H](N)CCCNC(=N)N)[C@@H](C)O)C(=O)N[C@H](C(=O)N[C@@H](Cc1ccc(O)cc1)C(=O)N[C@@H](C(=O)N(C)[C@@H](CCCNC(=N)N)C(=O)N[C@@H](Cc1ccccc1)C(=O)N[C@H](C(=O)N[C@@H](Cc1ccc(O)cc1)C(=O)N[C@@H](CCCNC(=N)N)C(=O)N[C@@H](CCCCN)C(=O)N[C@H](C(=O)N[C@@H](CCCNC(=N)N)C(N)=O)[C@@H](C)O)[C@@H](C)O)C(C)C)[C@@H](C)O [3e] (H-RRWTFRVTY[dV][NMeR]FTYRKTR-NH2)	50	
1.9 (≈ 4.65 µg/mL)	6.3 (≈ 15.4 µg/mL)	6.3 (≈ 15.4 µg/mL)	3.1 (≈ 7.59 µg/mL)	6.3 (≈ 15.4 µg/mL)					CC(C)[C@H](NC(=O)[C@H](CCCNC(=N)N)NC(=O)[C@H](Cc1ccccc1)NC(=O)[C@@H](NC(=O)[C@H](Cc1c[nH]c2ccccc12)NC(=O)[C@H](CCCNC(=N)N)NC(=O)[C@@H](N)CCCNC(=N)N)[C@@H](C)O)C(=O)N[C@H](C(=O)N[C@@H](Cc1ccc(O)cc1)C(=O)N[C@@H](CCCNC(=N)N)C(=O)NCC(=O)N[C@@H](Cc1ccccc1)C(=O)N[C@H](C(=O)N[C@@H](Cc1ccc(O)cc1)C(=O)N[C@@H](CCCNC(=N)N)C(=O)N[C@@H](CCCCN)C(=O)N[C@H](C(=O)N[C@@H](CCCNC(=N)N)C(N)=O)[C@@H](C)O)[C@@H](C)O)[C@@H](C)O [3c] (H-RRWTFRVTYRGFTYRKTR-NH2)	100	
0.3 (≈ 0.647 µg/mL)	3.1 (≈ 6.68 µg/mL)	0.6 (≈ 1.29 µg/mL)	0.4 (≈ 0.862 µg/mL)	0.6 (≈ 1.29 µg/mL)	0.3 (≈ 0.647 µg/mL)				CC(C)C[C@H](NC(=O)[C@H](CCCNC(=N)N)NC(=O)CNC(=O)CNC(=O)[C@@H](N)CCCNC(=N)N)C(=O)N[C@H]1CSSC[C@@H](C(=O)N[C@H](C(=O)NCC(=O)N[C@@H](CCCNC(=N)N)C(N)=O)C(C)C)NC(=O)[C@H](C(C)C)NC(=O)[C@@H]2CSSC[C@H](NC(=O)[C@H](Cc3ccc(O)cc3)NC1=O)C(=O)N[C@@H](CCCNC(=N)N)C(=O)N[C@@H](CCCNC(=N)N)C(=O)N[C@@H](CCCNC(=N)N)C(=O)N[C@@H](Cc1ccccc1)C(=O)N2 [compound 2, reference compound]	3.12	
0.4 (≈ 0.832 µg/mL)	3.1 (≈ 6.45 µg/mL)	0.8 (≈ 1.66 µg/mL)	0.4 (≈ 0.832 µg/mL)	1.6 (≈ 3.33 µg/mL)					CC(C)C[C@H](NC(=O)[C@H](CCCNC(=N)N)NC(=O)CNC(=O)CNC(=O)[C@@H](N)CCCNC(=N)N)C(=O)N[C@H](C(=O)N[C@@H](Cc1ccc(O)cc1)C(=O)N[C@H](C(=O)N[C@@H](CCCNC(=N)N)C(=O)N[C@H](C)C(=O)N(C)[C@@H](CCCNC(=N)N)C(=O)N[C@@H](Cc1ccccc1)C(=O)N[C@H](C(=O)N[C@H](C(=O)N[C@H](C(=O)N[C@H](C(=O)NCC(=O)N[C@@H](CCCNC(=N)N)C(N)=O)C(C)C)[C@@H](C)O)C(C)C)[C@@H](C)O)[C@@H](C)O)[C@@H](C)O [2d] (H-RGGRLTYTR[dA][NMeR]FTVTVGR-NH2)	100	
						3.0	0.8	0.8	Polymyxin B [reference compound]		
0.2 (≈ 0.468 µg/mL)	0.4 (≈ 0.936 µg/mL)	0.4 (≈ 0.936 µg/mL)	0.8 (≈ 1.87 µg/mL)	0.8 (≈ 1.87 µg/mL)	0.2 (≈ 0.468 µg/mL)				CC(C)[C@@H]1NC(=O)[C@@H](NC(=O)[C@H](Cc2c[nH]c3ccccc23)NC(=O)[C@@H](N)CCCNC(=N)N)CSSC[C@@H](C(=O)N[C@@H](Cc2c[nH]c3ccccc23)C(=O)O)NC(=O)[C@H](CCCNC(=N)N)NC(=O)[C@H](CCCNC(=N)N)NC(=O)[C@H](Cc2ccc(O)cc2)NC(=O)[C@H](CCCNC(=N)N)NC(=O)[C@H](C(C)C)NC(=O)[C@H](CCCNC(=N)N)N(C)C(=O)[C@@H](C(C)C)NC(=O)[C@H](C(C)C)NC(=O)[C@H](CCCNC(=N)N)NC(=O)[C@H](C)NC(=O)[C@H](Cc2ccc(O)cc2)NC1=O [1b] (H-RWCVYARV[dV][NMeR]VRYRRCW-OH; disulfide 3-16)		
0.2 (≈ 0.463 µg/mL)									CC[C@H](C)[C@H](NC(=O)[C@H](CCCNC(=N)N)N(C)C(=O)[C@H](NC(=O)[C@H](Cc1ccc(O)cc1)NC(=O)[C@@H](NC(=O)[C@@H](NC(=O)[C@H](CCCNC(=N)N)NC(=O)[C@H](Cc1ccccc1)NC(=O)[C@@H](NC(=O)[C@H](Cc1c[nH]c2ccccc12)NC(=O)[C@@H](N)CCCCN)[C@@H](C)O)C(C)C)[C@@H](C)O)C(C)C)C(=O)N[C@H](C(=O)N[C@@H](Cc1ccc(O)cc1)C(=O)N[C@@H](CCCNC(=N)N)C(=O)N[C@@H](CCCNC(=N)N)C(=O)N[C@H](C(=O)N[C@@H](CCCNC(=N)N)C(N)=O)[C@@H](C)O)[C@@H](C)O [4e] (H-KWTFRVTY[dV][NMeR]ITYRRTR-NH2)	50	
									CN[C@H](CC(C)C)C(=O)N[C@H]1C(=O)N[C@@H](CC(N)=O)C(=O)N[C@H]2C(=O)N[C@H]3C(=O)N[C@H](C(=O)N[C@H](C(=O)O)c4cc(O)cc(O)c4-c4cc3ccc4O)[C@H](O)c3ccc(c(Cl)c3)Oc3cc2cc(c3O[C@@H]2O[C@H](CO)[C@@H](O)[C@H](O)[C@H]2O[C@H]2C[C@](C)(N)[C@H](O)[C@H](C)O2)Oc2ccc(cc2Cl)[C@H]1O [Vancomycin, reference compound]		0.6 (≈ 0.87 µg/mL)
2.4 (≈ 5.48 µg/mL)	2.4 (≈ 5.48 µg/mL)	1.6 (≈ 3.65 µg/mL)	3.12 (≈ 7.12 µg/mL)	12.5 (≈ 28.5 µg/mL)	2.4 (≈ 5.48 µg/mL)				CC(C)[C@H](NC(=O)CNC(=O)[C@H](CCCNC(=N)N)NC(=O)[C@@H](NC(=O)[C@H](CCCNC(=N)N)NC(=O)[C@H](C)NC(=O)[C@H](Cc1ccc(O)cc1)NC(=O)[C@@H](NC(=O)[C@@H](NC(=O)[C@H](Cc1c[nH]c2ccccc12)NC(=O)[C@@H](N)CCCNC(=N)N)[C@@H](C)O)C(C)C)C(C)C)C(=O)N[C@@H](CCCNC(=N)N)C(=O)N[C@@H](Cc1ccc(O)cc1)C(=O)N[C@@H](CCCNC(=N)N)C(=O)N[C@@H](CCCNC(=N)N)C(=O)N[C@H](C(=O)N[C@@H](Cc1c[nH]c2ccccc12)C(=O)O)[C@@H](C)O [1c] (H-RWTVYARVRGVRYRRTW-OH)		
0.5 (≈ 1.04 µg/mL)									CC(C)C[C@H](NC(=O)[C@H](CCCNC(=N)N)NC(=O)CNC(=O)CNC(=O)[C@@H](N)CCCNC(=N)N)C(=O)N[C@H]1CSSC[C@@H](C(=O)N[C@H](C(=O)NCC(=O)N[C@@H](CCCNC(=N)N)C(N)=O)C(C)C)NC(=O)[C@H](C(C)C)NC(=O)[C@@H]2CSSC[C@H](NC(=O)[C@H](Cc3ccc(O)cc3)NC1=O)C(=O)N[C@@H](CCCNC(=N)N)C(=O)N[C@H](C)C(=O)N(C)[C@@H](CCCNC(=N)N)C(=O)N[C@@H](Cc1ccccc1)C(=O)N2 [2a] (H-RGGRLCYCR[dA][NMeR]FCVCVGR-NH2; disulfide 6-15, 8-13)	3.12	
0.4 (≈ 0.925 µg/mL)	0.8 (≈ 1.85 µg/mL)	0.8 (≈ 1.85 µg/mL)	0.4 (≈ 0.925 µg/mL)	0.8 (≈ 1.85 µg/mL)	0.4 (≈ 0.925 µg/mL)				CC(C)[C@@H]1NC(=O)[C@@H](NC(=O)[C@H](Cc2c[nH]c3ccccc23)NC(=O)[C@@H](N)CCCNC(=N)N)CSSC[C@@H](C(=O)N[C@@H](Cc2c[nH]c3ccccc23)C(=O)O)NC(=O)[C@H](CCCNC(=N)N)NC(=O)[C@H](CCCNC(=N)N)NC(=O)[C@H](Cc2ccc(O)cc2)NC(=O)[C@H](CCCNC(=N)N)NC(=O)[C@H](C(C)C)NC(=O)[C@H](CCCNC(=N)N)N(C)C(=O)[C@@H](C)NC(=O)[C@H](C(C)C)NC(=O)[C@H](CCCNC(=N)N)NC(=O)[C@H](C)NC(=O)[C@H](Cc2ccc(O)cc2)NC1=O [1a] (H-RWCVYARV[dA][NMeR]VRYRRCW-OH; disulfide 3-16)		
0.6 (≈ 1.4 µg/mL)	2.6 (≈ 6.08 µg/mL)	1.6 (≈ 3.74 µg/mL)	0.4 (≈ 0.935 µg/mL)	0.8 (≈ 1.87 µg/mL)	0.6 (≈ 1.4 µg/mL)				CC(C)[C@H](NC(=O)[C@H](CCCNC(=N)N)NC(=O)[C@H](C)NC(=O)[C@H](Cc1ccc(O)cc1)NC(=O)[C@@H](NC(=O)[C@@H](NC(=O)[C@H](Cc1c[nH]c2ccccc12)NC(=O)[C@@H](N)CCCNC(=N)N)[C@@H](C)O)C(C)C)C(=O)N[C@@H](C(=O)N(C)[C@@H](CCCNC(=N)N)C(=O)N[C@H](C(=O)N[C@@H](CCCNC(=N)N)C(=O)N[C@@H](Cc1ccc(O)cc1)C(=O)N[C@@H](CCCNC(=N)N)C(=O)N[C@@H](CCCNC(=N)N)C(=O)N[C@H](C(=O)N[C@@H](Cc1c[nH]c2ccccc12)C(=O)O)[C@@H](C)O)C(C)C)C(C)C [1e] (H-RWTVYARV[dV][NMeR]VRYRRTW-OH)		
0.4 (≈ 0.845 µg/mL)									CC(C)C[C@H](NC(=O)[C@H](CCCNC(=N)N)NC(=O)CNC(=O)CNC(=O)[C@@H](N)CCCNC(=N)N)C(=O)N[C@H]1CSSC[C@@H](C(=O)N[C@H](C(=O)NCC(=O)N[C@@H](CCCNC(=N)N)C(N)=O)C(C)C)NC(=O)[C@H](C(C)C)NC(=O)[C@@H]2CSSC[C@H](NC(=O)[C@H](Cc3ccc(O)cc3)NC1=O)C(=O)N[C@@H](CCCNC(=N)N)C(=O)N[C@H](C(C)C)C(=O)N(C)[C@@H](CCCNC(=N)N)C(=O)N[C@@H](Cc1ccccc1)C(=O)N2 [2b] (H-RGGRLCYCR[dV][NMeR]FCVCVGR-NH2; disulfide 6-15, 8-13)	3.12	

— publication PMC12520178, “Turn-engineering tunes the conformational rigidity of β-hairpin AMPs in achieving membrane selectivity and killing drug-resistant ESKAPE pathogens” (Chemical Science, 2025)
